Results as given in ChEMBL document CHEMBL1201862, “PubChem BioAssay data set” (2004).
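48-hour exposure; five concentrations; linearly interpolated endpoints. Here, GI50 denotes the concentration required for 50% inhibition of growth.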 The source made the active and inactive calls. Cut-off read from the data, not from the text of the source: active = GI50 up to about 1.1 µM and inactive = higher.

Assays:
Test in all cases: growth of human tumour cells (NCI), 48 h
HCT-116 = test system: HCT-116
T47D = test system: T47D
HCT-15 = test system: HCT-15
SK-MEL-2 = test system: SK-MEL-2
SR = test system: SR
SF-268 = test system: SF-268
SN12C = test system: SN12C
SK-MEL-5 = test system: SK-MEL-5
KM12 = test system: KM12
RPMI-8226 = test system: RPMI-8226
MDA-N = test system: MDA-N
SW-620 = test system: SW-620
SNB-19 = test system: SNB-19
NCI-H460 = test system: NCI-H460
MDA-MB-435 = test system: MDA-MB-435
K562 = test system: K562
TK-10 = test system: TK-10
DU-145 = test system: DU-145
HOP-92 = test system: HOP-92
OVCAR-5 = test system: OVCAR-5
M14 = test system: M14
NCI-H522 = test system: NCI-H522
CAKI-1 = test system: CAKI-1
OVCAR-8 = test system: OVCAR-8
SF-295 = test system: SF-295
Hs-578T = test system: Hs-578T
MDA-MB-231 = test system: MDA-MB-231
A549 = test system: A549
UO-31 = test system: UO-31
NCI/ADR-RES = test system: NCI/ADR-RES
COLO 205 = test system: COLO 205
A498 = test system: A498
HL-60 = test system: HL-60
CCRF-CEM = test system: CCRF-CEM
U-251 = test system: U-251
UACC-257 = test system: UACC-257
OVCAR-3 = test system: OVCAR-3
HCC 2998 = test system: HCC 2998
PC-3 = test system: PC-3
BT-549 = test system: BT-549
LOX IMVI = test system: LOX IMVI
NCI-H23 = test system: NCI-H23
OVCAR-4 = test system: OVCAR-4
786-0 = test system: 786-0
EKVX = test system: EKVX
ACHN = test system: ACHN
NCI-H226 = test system: NCI-H226
Malme-3M = test system: Malme-3M
SK-MEL-28 = test system: SK-MEL-28
RXF 393 = test system: RXF 393
SK-OV-3 = test system: SK-OV-3
IGROV-1 = test system: IGROV-1
HOP-62 = test system: HOP-62
UACC-62 = test system: UACC-62
MCF7 = test system: MCF7
HT-29 = test system: HT-29
SF-539 = test system: SF-539
SNB-75 = test system: SNB-75

c1ccc(CCN2CCOCC2)nc1
GI50 (HCT-116): > 100 µM (inactive) | GI50 (T47D): > 100 µM (inactive) | GI50 (HCT-15): > 100 µM | GI50 (SK-MEL-2): > 100 µM (inactive) | GI50 (SR): > 100 µM (inactive) | GI50 (SF-268): > 100 µM (inactive) | GI50 (SN12C): > 100 µM (inactive) | GI50 (SK-MEL-5): > 100 µM (inactive) | GI50 (KM12): > 100 µM (inactive) | GI50 (RPMI-8226): > 100 µM (inactive) | GI50 (MDA-N): > 100 µM (inactive) | GI50 (SW-620): > 100 µM (inactive) | GI50 (SNB-19): > 100 µM (inactive) | GI50 (NCI-H460): > 100 µM (inactive) | GI50 (MDA-MB-435): > 100 µM (inactive) | GI50 (K562): > 100 µM (inactive) | GI50 (TK-10): > 100 µM (inactive) | GI50 (DU-145): > 100 µM (inactive) | GI50 (HOP-92): > 100 µM (inactive) | GI50 (OVCAR-5): > 100 µM (inactive) | GI50 (M14): > 100 µM (inactive) | GI50 (NCI-H522): > 100 µM (inactive) | GI50 (CAKI-1): > 100 µM (inactive) | GI50 (OVCAR-8): > 100 µM (inactive) | GI50 (SF-295): > 100 µM (inactive) | GI50 (Hs-578T): > 100 µM (inactive) | GI50 (MDA-MB-231): > 100 µM (inactive) | GI50 (A549): > 100 µM (inactive) | GI50 (UO-31): > 100 µM (inactive) | GI50 (NCI/ADR-RES): > 100 µM (inactive) | GI50 (COLO 205): > 100 µM (inactive) | GI50 (A498): > 100 µM (inactive) | GI50 (HL-60): > 100 µM (inactive) | GI50 (CCRF-CEM): > 100 µM (inactive) | GI50 (U-251): > 100 µM (inactive) | GI50 (UACC-257): > 100 µM (inactive) | GI50 (OVCAR-3): > 100 µM (inactive) | GI50 (HCC 2998): > 100 µM (inactive) | GI50 (PC-3): > 100 µM (inactive) | GI50 (BT-549): > 100 µM (inactive) | GI50 (LOX IMVI): > 100 µM (inactive) | GI50 (NCI-H23): > 100 µM (inactive) | GI50 (OVCAR-4): > 100 µM (inactive) | GI50 (786-0): > 100 µM (inactive) | GI50 (EKVX): > 100 µM (inactive) | GI50 (ACHN): > 100 µM (inactive) | GI50 (NCI-H226): > 100 µM (inactive) | GI50 (Malme-3M): > 100 µM (inactive) | GI50 (SK-MEL-28): > 100 µM (inactive) | GI50 (RXF 393): > 100 µM (inactive) | GI50 (SK-OV-3): > 100 µM (inactive) | GI50 (IGROV-1): > 100 µM (inactive) | GI50 (HOP-62): > 100 µM (inactive) | GI50 (UACC-62): > 100 µM (inactive) | GI50 (MCF7): > 100 µM (inactive) | GI50 (HT-29): > 100 µM (inactive)

Cc1c(N2CCCC2)cc2c(c1NC(=O)c1ccccc1Cl)C(C)(C)CC2(C)C
GI50 (HCT-116): 10.6 µM (inactive) | GI50 (T47D): 11.5 µM (inactive) | GI50 (HCT-15): 14.6 µM | GI50 (SK-MEL-2): 16.3 µM (inactive) | GI50 (SR): 14.7 µM (inactive) | GI50 (SF-268): 15.4 µM (inactive) | GI50 (SN12C): 16.2 µM (inactive) | GI50 (SK-MEL-5): 16.8 µM (inactive) | GI50 (KM12): 15.3 µM (inactive) | GI50 (RPMI-8226): 12.9 µM (inactive) | GI50 (SF-539): 19.8 µM (inactive) | GI50 (MDA-N): 13.9 µM (inactive) | GI50 (SW-620): 16 µM (inactive) | GI50 (SNB-19): 15.2 µM (inactive) | GI50 (SNB-75): 15.5 µM (inactive) | GI50 (NCI-H460): 12.3 µM (inactive) | GI50 (MDA-MB-435): 14.4 µM (inactive) | GI50 (K562): 35 µM (inactive) | GI50 (TK-10): 11.1 µM (inactive) | GI50 (DU-145): 15.9 µM (inactive) | GI50 (HOP-92): 11.5 µM (inactive) | GI50 (OVCAR-5): 18 µM (inactive) | GI50 (M14): 13.5 µM (inactive) | GI50 (NCI-H522): 13.1 µM (inactive) | GI50 (CAKI-1): 13.3 µM (inactive) | GI50 (OVCAR-8): 16 µM (inactive) | GI50 (SF-295): 13.3 µM (inactive) | GI50 (Hs-578T): 16.7 µM (inactive) | GI50 (MDA-MB-231): 15.4 µM (inactive) | GI50 (A549): 12.9 µM (inactive) | GI50 (UO-31): 13.2 µM (inactive) | GI50 (NCI/ADR-RES): 13.4 µM (inactive) | GI50 (COLO 205): 18.2 µM (inactive) | GI50 (A498): 15 µM (inactive) | GI50 (U-251): 14.5 µM (inactive) | GI50 (UACC-257): 11.7 µM (inactive) | GI50 (OVCAR-3): 8.3 µM (inactive) | GI50 (HCC 2998): 13.1 µM (inactive) | GI50 (PC-3): 15.5 µM (inactive) | GI50 (BT-549): 17.8 µM (inactive) | GI50 (LOX IMVI): 13.4 µM (inactive) | GI50 (NCI-H23): 14.7 µM (inactive) | GI50 (OVCAR-4): 15.7 µM (inactive) | GI50 (786-0): 14.1 µM (inactive) | GI50 (EKVX): 14.5 µM (inactive) | GI50 (ACHN): 15 µM (inactive) | GI50 (NCI-H226): 23.2 µM (inactive) | GI50 (Malme-3M): 17.7 µM (inactive) | GI50 (SK-MEL-28): 17.6 µM (inactive) | GI50 (RXF 393): 14.3 µM (inactive) | GI50 (SK-OV-3): 13.1 µM (inactive) | GI50 (IGROV-1): 13.6 µM (inactive) | GI50 (HOP-62): 14.2 µM (inactive) | GI50 (UACC-62): 10.8 µM (inactive) | GI50 (MCF7): 13.8 µM (inactive) | GI50 (HT-29): 14.3 µM (inactive)
